Assay results from ChEMBL document CHEMBL1201861, “Genomics of Drug Sensitity in Cancer screening data, Wellcome Trust Sanger Institute”.

Tests used:
Experiment in all cases: cells
Conditions in all cases: Homo sapiens
[1] = test system: NCI-H1155; assay type: functional, cell-based;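 also: cell growth inhibition measured by a viability assay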
Description: SANGER: Inhibition of human NCI-H1155 cell growth in a cell viability assay.

[2] = test system: EKVX; assay type: functional, cell-based;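 also: growth inhibition of human EKVX cells, read out with a cell viability assay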
Description: SANGER: Inhibition of human EKVX cell growth in a cell viability assay.

[3] = test system: HC-1; assay type: functional, cell-based;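 also: growth inhibition of HC-1 cells measured by a cell viability assay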
Description: SANGER: Inhibition of human HC-1 cell growth in a cell viability assay.

[4] = test system: NEC8; assay type: functional, cell-based;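 also: growth inhibition of human NEC8 cells, read out by a cell viability assay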
Description: SANGER: Inhibition of human NEC8 cell growth in a cell viability assay.

[5] = test system: Lu-65; assay type: functional, cell-based;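 also: growth inhibition of Lu-65 cancer cells, read out by a cell viability assay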
Description: SANGER: Inhibition of human LU-65 cell growth in a cell viability assay.

[6] = test system: MHH-NB-11; assay type: functional, cell-based;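 also: growth inhibition of human MHH-NB-11 cells, read out by a cell viability assay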
Description: SANGER: Inhibition of human MHH-NB-11 cell growth in a cell viability assay.

[7] = test system: MLMA; assay type: functional, cell-based;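 also: growth inhibition of MLMA cells (human), determined through a cell viability readout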
Description: SANGER: Inhibition of human MLMA cell growth in a cell viability assay.

[8] = test system: LU-134-A; assay type: functional, cell-based
Description: SANGER: Inhibition of human LU-134-A cell growth in a cell viability assay.

[9] = test system: SNU-C2B; assay type: functional, cell-based;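 also: cell viability readout used to measure compound-driven suppression of SNU-C2B cell proliferation, IC50 marking half-maximal growth inhibition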
Description: SANGER: Inhibition of human SNU-C2B cell growth in a cell viability assay.

[10] = test system: LNCaP-Clone-FGC; assay type: functional, cell-based
Description: SANGER: Inhibition of human LNCaP-Clone-FGC cell growth in a cell viability assay.

[11] = test system: DJM-1; assay type: functional, cell-based;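 also: growth inhibition of human DJM-1 cells, read out by a cell viability assay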
Description: SANGER: Inhibition of human DJM-1 cell growth in a cell viability assay.

[12] = test system: Ramos-2G6-4C10; assay type: functional, cell-based;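 also: growth inhibition of the cell line, measured by a cell viability read-out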
Description: SANGER: Inhibition of human Ramos-2G6-4C10 cell growth in a cell viability assay.

[13] = test system: LS-1034; assay type: functional, cell-based
Description: SANGER: Inhibition of human LS-1034 cell growth in a cell viability assay.

[14] = test system: KURAMOCHI; assay type: functional, cell-based;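 also: growth inhibition of KURAMOCHI cells, read out with a cell viability assay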
Description: SANGER: Inhibition of human KURAMOCHI cell growth in a cell viability assay.

[15] = test system: NOMO-1; assay type: functional, cell-based;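 also: growth inhibition of human NOMO-1 cells measured by a cell viability assay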
Description: SANGER: Inhibition of human NOMO-1 cell growth in a cell viability assay.

[16] = test system: C8166; assay type: functional, cell-based;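 also: growth inhibition of human C8166 cells measured by a cell viability assay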
Description: SANGER: Inhibition of human C8166 cell growth in a cell viability assay.

[17] = test system: TGBC24TKB; assay type: functional, cell-based;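 also: growth inhibition of human TGBC24TKB cells, read out with a cell viability assay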
Description: SANGER: Inhibition of human TGBC24TKB cell growth in a cell viability assay.

[18] = test system: ONS-76; assay type: functional, cell-based;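 also: growth inhibition of human ONS-76 cells, read out with a cell viability assay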
Description: SANGER: Inhibition of human ONS-76 cell growth in a cell viability assay.

[19] = test system: MHH-PREB-1; assay type: functional, cell-based;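 also: cell viability assay measuring inhibition of proliferation of human MHH-PREB-1 cells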
Description: SANGER: Inhibition of human MHH-PREB-1 cell growth in a cell viability assay.

[20] = test system: NCI-H747; assay type: functional, cell-based;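 also: growth inhibition of human NCI-H747 cells, read out by a cell viability assay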
Description: SANGER: Inhibition of human NCI-H747 cell growth in a cell viability assay.

[21] = test system: 8-MG-BA; assay type: functional, cell-based;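 also: growth inhibition of 8-MG-BA cells, read out with a cell viability assay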
Description: SANGER: Inhibition of human 8-MG-BA cell growth in a cell viability assay.

[22] = test system: U-87 MG; assay type: functional, cell-based, U-87MG ATCC;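 also: growth inhibition of the cells measured with a viability assay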
Description: SANGER: Inhibition of human U-87-MG cell growth in a cell viability assay.

[23] = test system: SW 962; assay type: functional, cell-based;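 also: growth inhibition of human SW962 cells, read out by a cell viability assay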
Description: SANGER: Inhibition of human SW962 cell growth in a cell viability assay.

[24] = test system: IA-LM; assay type: functional, cell-based;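 also: cell viability assay measuring growth inhibition of human IA-LM cells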
Description: SANGER: Inhibition of human IA-LM cell growth in a cell viability assay.

[25] = test system: SF-126; assay type: functional, cell-based;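 also: growth inhibition of human SF126 cells, read out with a cell viability assay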
Description: SANGER: Inhibition of human SF126 cell growth in a cell viability assay.

[26] = test system: EW-1; assay type: functional, cell-based;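 also: growth inhibition of the human EW-1 cell line, read out by a cell viability assay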
Description: SANGER: Inhibition of human EW-1 cell growth in a cell viability assay.

[27] = test system: DOHH-2; assay type: functional, cell-based;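 also: growth inhibition of human DOHH-2 cells, read out with a cell viability assay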
Description: SANGER: Inhibition of human DOHH-2 cell growth in a cell viability assay.

[28] = test system: ES5; assay type: functional, cell-based;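 also: growth inhibition of human ES5 cells, read out by a cell viability assay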
Description: SANGER: Inhibition of human ES5 cell growth in a cell viability assay.

[29] = test system: KARPAS-45; assay type: functional, cell-based;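 also: inhibition of cell line growth, read out through a viability assay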
Description: SANGER: Inhibition of human KARPAS-45 cell growth in a cell viability assay.

[30] = test system: A704; assay type: functional, cell-based;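 also: growth inhibition of human A704 cells, read out with a cell viability assay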
Description: SANGER: Inhibition of human A704 cell growth in a cell viability assay.

[31] = test system: SNU1; assay type: functional, cell-based;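 also: growth inhibition of human NCI-SNU-1 cells, measured with a cell viability assay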
Description: SANGER: Inhibition of human NCI-SNU-1 cell growth in a cell viability assay.

[32] = test system: KARPAS-299; assay type: functional, cell-based
Description: SANGER: Inhibition of human KARPAS-299 cell growth in a cell viability assay.

[33] = test system: KINGS-1; assay type: functional, cell-based;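 also: cell viability assay measuring suppression of KINGS-1 cell growth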
Description: SANGER: Inhibition of human KINGS-1 cell growth in a cell viability assay.

[34] = test system: NB6; assay type: functional, cell-based;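 also: growth inhibition of NB6 cells, read out by a cell viability assay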
Description: SANGER: Inhibition of human NB6 cell growth in a cell viability assay.

[35] = test system: CCRF-CEM; assay type: functional, cell-based;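 also: inhibition of CCRF-CEM cell growth, measured by a cell viability assay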
Description: SANGER: Inhibition of human CCRF-CEM cell growth in a cell viability assay.

[36] = test system: LS-513; assay type: functional, cell-based
Description: SANGER: Inhibition of human LS-513 cell growth in a cell viability assay.

[37] = test system: BB30-HNC; assay type: functional, cell-based;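 also: growth inhibition of the cultured cell line, read out by a cell viability assay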
Description: SANGER: Inhibition of human BB30-HNC cell growth in a cell viability assay.

[38] = test system: HCE-T; assay type: functional, cell-based;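 also: cell viability assay read-out, reporting inhibition of HCE-T cell growth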
Description: SANGER: Inhibition of human HCE-T cell growth in a cell viability assay.

[39] = test system: SW982; assay type: functional, cell-based;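 also: growth inhibition of SW982 cells, read out with a cell viability assay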
Description: SANGER: Inhibition of human SW982 cell growth in a cell viability assay.

[40] = test system: COLO-668; assay type: functional, cell-based
Description: SANGER: Inhibition of human COLO-668 cell growth in a cell viability assay.

[41] = test system: CW-2; assay type: functional, cell-based;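 also: growth inhibition of CW-2 cells, read out by a cell viability assay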
Description: SANGER: Inhibition of human CW-2 cell growth in a cell viability assay.

[42] = test system: KS-1; assay type: functional, cell-based;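 also: growth inhibition of KS-1 cells, read out with a cell viability assay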
Description: SANGER: Inhibition of human KS-1 cell growth in a cell viability assay.

[43] = test system: RPMI-8866; assay type: functional, cell-based
Description: SANGER: Inhibition of human RPMI-8866 cell growth in a cell viability assay.

[44] = test system: SK-NEP-1; assay type: functional, cell-based;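 also: growth inhibition of human SK-NEP-1 cells, read out by a cell viability assay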
Description: SANGER: Inhibition of human SK-NEP-1 cell growth in a cell viability assay.

[45] = test system: P30-OHK; assay type: functional, cell-based;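 also: growth inhibition of the P30-OHK cell line, read out with a cell viability assay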
Description: SANGER: Inhibition of human P30-OHK cell growth in a cell viability assay.

[46] = test system: D-502MG; assay type: functional, cell-based
Description: SANGER: Inhibition of human D-502MG cell growth in a cell viability assay.

[47] = test system: TE-8; assay type: functional, cell-based;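 also: growth inhibition of TE-8 cells, measured with a cell viability readout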
Description: SANGER: Inhibition of human TE-8 cell growth in a cell viability assay.

[48] = test system: HOP-62; assay type: functional, cell-based;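 also: cell growth inhibition determined with a viability assay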
Description: SANGER: Inhibition of human HOP-62 cell growth in a cell viability assay.

[49] = test system: OMC-1; assay type: functional, cell-based;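 also: growth inhibition of the OMC-1 cell line, measured by a cell viability assay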
Description: SANGER: Inhibition of human OMC-1 cell growth in a cell viability assay.

[50] = test system: Mo; assay type: functional, cell-based
Description: SANGER: Inhibition of human Mo-T cell growth in a cell viability assay.

[51] = test system: HuTu80; assay type: functional, cell-based, HUTU-80;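 also: growth inhibition of HuTu80 human cells, determined with a cell viability readout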
Description: SANGER: Inhibition of human HUTU-80 cell growth in a cell viability assay.

[52] = test system: MSTO-211H; assay type: functional, cell-based
Description: SANGER: Inhibition of human MSTO-211H cell growth in a cell viability assay.

[53] = test system: NOS-1; assay type: functional, cell-based;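 also: growth inhibition of the human NOS-1 cell line, read out with a cell viability assay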
Description: SANGER: Inhibition of human NOS-1 cell growth in a cell viability assay.

[54] = test system: KMOE-2; assay type: functional, cell-based;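 also: growth inhibition of human KMOE-2 cells, read out with a cell viability assay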
Description: SANGER: Inhibition of human KMOE-2 cell growth in a cell viability assay.

[55] = test system: QIMR-WIL; assay type: functional, cell-based;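 also: growth inhibition of QIMR-WIL cells, read out with a cell viability assay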
Description: SANGER: Inhibition of human QIMR-WIL cell growth in a cell viability assay.

[56] = test system: HH; assay type: functional, cell-based
Description: SANGER: Inhibition of human HH cell growth in a cell viability assay.

[57] = test system: TK-10; assay type: functional, cell-based;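 also: growth inhibition of TK-10 cells, read out in a cell viability assay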
Description: SANGER: Inhibition of human TK10 cell growth in a cell viability assay.

[58] = test system: NCI-H69; assay type: functional, cell-based;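 also: growth inhibition of the cell line, read out with a cell viability assay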
Description: SANGER: Inhibition of human NCI-H69 cell growth in a cell viability assay.

[59] = test system: KY821; assay type: functional, cell-based;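 also: growth inhibition of human KY821 cells, read out by a cell viability assay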
Description: SANGER: Inhibition of human KY821 cell growth in a cell viability assay.

[60] = test system: KLE; assay type: functional, cell-based;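 also: growth inhibition of human KLE cells, read out with a cell viability assay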
Description: SANGER: Inhibition of human KLE cell growth in a cell viability assay.

[61] = test system: HCC2218; assay type: functional, cell-based
Description: SANGER: Inhibition of human HCC2218 cell growth in a cell viability assay.

[62] = test system: LAN-6; assay type: functional, cell-based
Description: SANGER: Inhibition of human LAN-6 cell growth in a cell viability assay.

[63] = test system: LXF-289 cell line; assay type: functional, cell-based
Description: SANGER: Inhibition of human LXF-289 cell growth in a cell viability assay.

[64] = test system: GCIY; assay type: functional, cell-based
Description: SANGER: Inhibition of human GCIY cell growth in a cell viability assay.

NC(=O)c1ncn([C@@H]2O[C@H](COP(=O)(O)O)[C@@H](O)[C@H]2O)c1N showed an IC50 [1] of 800 µM, an IC50 [2] of over 2000 µM and an IC50 [3] of 1160 µM. The IC50 [4] was over 2000 µM, the IC50 [5] was over 2000 µM and the IC50 [6] was 1110 µM. For the same compound, the IC50 [7] was 375 µM, the IC50 [8] was 959 µM and the IC50 [9] was over 2000 µM. For the same compound, the IC50 [10] was over 2000 µM, the IC50 [11] was over 2000 µM and the IC50 [12] was 238 µM. It also gave an IC50 [13] of over 2000 µM, an IC50 [14] of over 2000 µM and an IC50 [15] of 847 µM. For the same compound, the IC50 [16] was 1170 µM, the IC50 [17] was 736 µM and the IC50 [18] was over 2000 µM. It also gave an IC50 [19] of 416 µM, an IC50 [20] of 1650 µM and an IC50 [21] of over 2000 µM. For the same compound, the IC50 [22] was over 2000 µM, the IC50 [23] was over 2000 µM and the IC50 [24] was 859 µM. The IC50 [25] was over 2000 µM, the IC50 [26] was 1870 µM and the IC50 [27] was 1310 µM. It also gave an IC50 [28] of over 2000 µM, an IC50 [29] of 1410 µM and an IC50 [30] of over 2000 µM. The IC50 [31] was 464 µM, the IC50 [32] was over 2000 µM and the IC50 [33] was over 2000 µM. For the same compound, the IC50 [34] was over 2000 µM, the IC50 [35] was over 2000 µM and the IC50 [36] was over 2000 µM. For the same compound, the IC50 [37] was 214 µM, the IC50 [38] was 715 µM and the IC50 [39] was over 2000 µM. The IC50 [40] was over 2000 µM, the IC50 [41] was over 2000 µM and the IC50 [42] was 1250 µM. The IC50 [43] was over 2000 µM, the IC50 [44] was 611 µM and the IC50 [45] was 541 µM. For the same compound, the IC50 [46] was over 2000 µM, the IC50 [47] was 828 µM and the IC50 [48] was over 2000 µM. It also gave an IC50 [49] of over 2000 µM, an IC50 [50] of over 2000 µM and an IC50 [51] of over 2000 µM. For the same compound, the IC50 [52] was 1740 µM, the IC50 [53] was 524 µM and the IC50 [54] was 415 µM. It also gave an IC50 [55] of 486 µM, an IC50 [56] of 232 µM and an IC50 [57] of over 2000 µM.
In the case of CC(=O)c1c(C)c2cnc(Nc3ccc(N4CCNCC4)cn3)nc2n(C2CCCC2)c1=O [PALBOCICLIB], the IC50 [1] is reported as over 4 µM, the IC50 [2] is reported as over 4 µM and the IC50 [4] is reported as over 4 µM. For the same compound, the IC50 [5] was over 4 µM, the IC50 [6] was 0.22 µM and the IC50 [7] was over 4 µM. The IC50 [8] was over 4 µM, the IC50 [9] was over 4 µM and the IC50 [10] was over 4 µM. It also gave an IC50 [11] of over 4 µM, an IC50 [12] of 2.77 µM and an IC50 [13] of over 4 µM. The IC50 [14] was over 4 µM, the IC50 [15] was over 4 µM and the IC50 [16] was over 4 µM. The IC50 [58] was over 4 µM, the IC50 [17] was over 4 µM and the IC50 [18] was 0.678 µM. It also gave an IC50 [59] of 0.314 µM, an IC50 [19] of 0.637 µM and an IC50 [20] of 2.32 µM. The IC50 [21] was over 4 µM, the IC50 [22] was over 4 µM and the IC50 [23] was 0.809 µM. It also gave an IC50 [24] of over 4 µM, an IC50 [25] of over 4 µM and an IC50 [60] of over 4 µM. The IC50 [26] was over 4 µM, the IC50 [27] was over 4 µM and the IC50 [61] was 2.35 µM. It also gave an IC50 [28] of 0.753 µM, an IC50 [29] of 0.376 µM and an IC50 [30] of over 4 µM. For the same compound, the IC50 [31] was 1.16 µM, the IC50 [32] was over 4 µM and the IC50 [33] was over 4 µM. It also gave an IC50 [34] of 2.4 µM, an IC50 [35] of over 4 µM and an IC50 [62] of over 4 µM. It also gave an IC50 [36] of over 4 µM, an IC50 [37] of over 4 µM and an IC50 [38] of over 4 µM. The IC50 [39] was over 4 µM, the IC50 [40] was over 4 µM and the IC50 [41] was over 4 µM. It also gave an IC50 [42] of over 4 µM, an IC50 [43] of 1.59 µM and an IC50 [44] of 0.22 µM. For the same compound, the IC50 [45] was over 4 µM, the IC50 [46] was over 4 µM and the IC50 [47] was 1.42 µM. For the same compound, the IC50 [63] was over 4 µM, the IC50 [49] was over 4 µM and the IC50 [50] was over 4 µM. It also gave an IC50 [52] of 1.7 µM, an IC50 [64] of over 4 µM and an IC50 [53] of over 4 µM. It also gave an IC50 [55] of 1.13 µM, an IC50 [56] of 0.599 µM and an IC50 [57] of 3.2 µM.
Cn1c(=O)n(-c2ccc(C(C)(C)C#N)cc2)c2c3cc(-c4cnc5ccccc5c4)ccc3ncc21 [DACTOLISIB] gave an IC50 [1] of 0.0483 µM, an IC50 [2] of 0.101 µM and an IC50 [4] of 0.0672 µM. It also gave an IC50 [5] of 1.62 µM, an IC50 [6] of 0.629 µM and an IC50 [7] of 0.137 µM. The IC50 [8] was 0.079 µM, the IC50 [9] was 0.181 µM and the IC50 [10] was 0.0376 µM. The IC50 [11] was 0.34 µM, the IC50 [12] was 0.00849 µM and the IC50 [13] was 0.491 µM. For the same compound, the IC50 [14] was 0.266 µM, the IC50 [15] was 0.0459 µM and the IC50 [16] was over 2 µM. For the same compound, the IC50 [58] was 0.427 µM, the IC50 [17] was 0.222 µM and the IC50 [18] was 0.0291 µM. For the same compound, the IC50 [59] was 0.0562 µM, the IC50 [19] was 0.00912 µM and the IC50 [20] was 0.119 µM. For the same compound, the IC50 [21] was 0.0373 µM, the IC50 [22] was 0.301 µM and the IC50 [23] was 0.0268 µM. It also gave an IC50 [24] of 0.108 µM, an IC50 [25] of 0.0194 µM and an IC50 [60] of 0.252 µM. The IC50 [26] was 0.12 µM, the IC50 [27] was 0.0464 µM and the IC50 [61] was 0.00661 µM. The IC50 [28] was 0.0147 µM, the IC50 [29] was 0.0135 µM and the IC50 [30] was 0.0556 µM. The IC50 [31] was 0.022 µM, the IC50 [32] was 1.79 µM and the IC50 [33] was 0.0823 µM. It also gave an IC50 [34] of 0.397 µM, an IC50 [35] of over 2 µM and an IC50 [62] of over 2 µM. For the same compound, the IC50 [36] was 0.141 µM, the IC50 [37] was 0.131 µM and the IC50 [38] was 0.0837 µM. It also gave an IC50 [39] of 0.0499 µM, an IC50 [40] of 0.706 µM and an IC50 [41] of 0.27 µM. It also gave an IC50 [42] of 0.0447 µM, an IC50 [43] of 0.0728 µM and an IC50 [44] of 0.0342 µM. The IC50 [45] was 0.0835 µM, the IC50 [46] was 0.106 µM and the IC50 [47] was 0.0665 µM. The IC50 [63] was 0.026 µM, the IC50 [49] was 0.1 µM and the IC50 [50] was 0.948 µM. The IC50 [52] was 0.0635 µM, the IC50 [64] was 0.0507 µM and the IC50 [53] was 0.0301 µM. It also gave an IC50 [55] of 0.0306 µM, an IC50 [56] of 0.0157 µM and an IC50 [57] of 0.1 µM.
